Active and inactive are the calls of the source. The rule behind the calls is not given here.
Columns and labels:
[1] = Competitive inhibition of bacterial TPL assessed as decrease in phenol production incubated for 3 mins in presence of PLP/L-Tyr by LC-MS analysis; set-up: species or system Bacteria
[2] = tested on: Morganella morganii; assay: Inhibition of recombinant Morganella morganii JCM1672 TPL extracted from Escherichia coli BL21(DE3) assessed as decrease in phenol production incubated for 3 mins in presence of PLP/L-Tyr by LC-MS analysis
[3] = tested on: Citrobacter koseri; assay: Inhibition of recombinant Citrobacter koseri JCM1658 TPL extracted from Escherichia coli BL21(DE3) assessed as decrease in phenol production incubated for 3 mins in presence of PLP/L-Tyr by LC-MS analysis
[4] = tested on: Morganella morganii; assay: Inhibition of TPL in Morganella morganii JCM1672 assessed as decrease in phenol production at 100 to 500 uM incubated for 3 hrs by absorbance based analysis relative to control; conditions: dose 100-500 µM
[5] = tested on: Citrobacter koseri; assay: Inhibition of TPL in Citrobacter koseri JCM1658 assessed as decrease in phenol production at 100 to 500 uM incubated for 3 hrs by absorbance based analysis relative to control; conditions: dose 100-500 µM
[6] = tested on: Citrobacter koseri; assay: Effect on TPL expression in Citrobacter koseri JCM1658 up to 500 uM by immunoblot analysis; format: functional
[7] = tested on: Morganella morganii; assay: Effect on TPL expression in Morganella morganii JCM1672 up to 500 uM by immunoblot analysis; format: functional
[8] = tested on: Morganella morganii; assay: Inhibition of TPL in Morganella morganii JCM1672 assessed as decrease in phenol production at 100 uM incubated for 1 hr by absorbance based analysis
[9] = tested on: Morganella morganii; assay: Inhibition of cell growth in Morganella morganii JCM1672 up to 500 uM incubated up to 24 hrs; format: functional, organism-based
[10] = tested on: Mus musculus; assay: Effect on fecal phenol level in C57BL/6J mouse administered orally measured after 7 days by LC-MS analysis; format: functional, organism-based; conditions: route po, time 7.0 day
[11] = tested on: Morganella morganii; assay: Inhibition of TPL in Morganella morganii JCM1672 assessed as decrease in phenol production at 500 uM incubated for 0.5 to 3 hrs by absorbance based analysis; conditions: time 0.5-3 hrs
[12] = tested on: Citrobacter koseri; assay: Inhibition of cell growth in Citrobacter koseri JCM1658 up to 500 uM incubated up to 24 hrs; format: functional, organism-based
[13] = tested on: Mus musculus; assay: In vivo inhibition of TPL in C57BL/6J mouse assessed as reduction in L-Tyr-induced fecal phenol level administered orally measured after 14 days by LC-MS analysis; format: functional, organism-based; conditions: route po, time 14.0 day
[14] = tested on: Citrobacter koseri; assay: Inhibition of TPL in Citrobacter koseri JCM1658 assessed as decrease in phenol production incubated for 0.5 to 3 hrs by absorbance based analysis; conditions: dose 100-500 µM, time 0.5-3 hrs
[15] = tested on: Mus musculus; assay: In vivo inhibition of TPL in feces of C57BL/6J mouse administered orally measured after 14 days by immunoassay; format: functional, organism-based; conditions: route po, time 14.0 day

Compound	Ki [1] [µM]	inhibition [2]	other results
N[C@@H](Cc1ccc(O)cn1)C(=O)O	130	–	–
COc1cc(C(=O)O)ccc1O	–	inactive	–
COc1ccc(C(=O)O)cc1OC	–	inactive	–
O=C(O)Cc1ccc(O)c(O)c1	–	inactive	–
O=C(O)c1ccc(O)cc1	–	inactive	–
O=C(O)c1ccc(O)nc1	–	inactive	–
O=C(O)c1ccccc1	–	inactive	–
O=C(O)c1cccnc1	–	inactive	–
O=C(O)c1cncc(O)c1	–	Active	–
O=C(O[C@@H]1Cc2c(O)cc(O)cc2O[C@@H]1c1cc(O)c(O)c(O)c1)c1cc(O)c(O)c(O)c1	–	Active	inhibition [3]: Active
O=C(O[C@@H]1Cc2c(O)cc(O)cc2O[C@@H]1c1ccc(O)c(O)c1)c1cc(O)c(O)c(O)c1	–	Active	inhibition [3]: Active
Oc1cccc(O)c1	–	inactive	–
Oc1cccc(O)c1O	–	inactive	–
Oc1ccccc1O	–	inactive	–
O=C(O)c1cc(O)cc(O)c1 [3,5-DIHYDROXYBENZOIC ACID]	25.7	Active	Imax [4]: 29.3%; Imax [5]: 56.2%; Activity [6]: No effect; Activity [7]: No effect; inhibition [8]: Active; inhibition [9]: inactive; Activity [10]: No effect; inhibition [11]: Active; inhibition [12]: inactive; inhibition [13]: Active; inhibition [14]: Dose-dependent-effect; inhibition [15]: Active; Tpl Expression Was Below The Detection Limit
O=C(O)c1cccc(O)c1 [3-HYDROXYBENZOIC ACID]	35.8	Active	–
O=C(O)c1cc(O)c(O)c(O)c1 [GALLIC ACID]	73.2	Active	inhibition [3]: Active
COc1ccc(C(=O)O)cc1O [ISOVANILLIC ACID]	44.7	Active	–
O=C(O)c1ccc(O)c(O)c1 [PROTOCATECHUIC ACID]	45.5	Active	–

Source: ChEMBL document CHEMBL6134841, “3,5-Dihydroxybenzoic Acid as a Potent Inhibitor of Tyrosine Phenol-Lyase Decreases Fecal Phenol Levels in Mice” (J Med Chem, 2025)
